The text below walks through data of patent publication US20240148747A1, “SMALL MOLECULE ACTIVATORS OF YAP TRANSCRIPTIONAL ACTIVITY FOR REGENERATIVE ORGAN REPAIR” (THE SCRIPPS RESEARCH INSTITUTE, priority 2021, published 2024).

One may read the EC50 as the concentration needed to bring the measured effect to its halfway point. As a reminder, the IC50 is the midpoint of a concentration-inhibition curve. Lower therefore signals greater potency in that assay.

Where two headings read alike, the source gives them in different places.

For one data set, the system named is YAP. In words: TEAD-LUC activation assay (293A-TEAD-LUC reporter). The class given is cell-based. Particulars: Homo sapiens, read-out: TEAD-LUC activation assay EC50.
The nature of data set [1]: Cytotoxicity in the TEAD-LUC activation assay. As to conditions: human.

Description for YAP: More specifically, we used a 293A cell line harboring a stably integrated cassette containing 8 copies of the TEAD binding element upstream of luciferase (8xGTII-LUC). These cells retain responsiveness to contact inhibition-induced decreases in YAP transcriptional output.^6 The TEAD-responsive reporter assay (called 293A-TEAD-LUC throughout) was adapted to 1536-well format and then used to screen a library of ˜738k compounds for YAP-inducing activity.
Additional compounds of the present disclosure were subjected to the assay described above.

Take `O=C(NCCCn1ccnn1)c1cc(-c2ccc(Cl)cc2)on1` [Compound 81]: the EC50 in the data set with YAP (Table 3) is > 20 µM. The IC50 in data set [1] was > 20 µM.
`N#Cc1cccc(NC(=O)c2cc(-c3ccncc3)[nH]n2)c1` [Compound 154]: the EC50 in the data set with YAP (Table 4) was 2 µM. Further, in data set [1], the IC50 was > 20 µM.
`O=C(NCCCn1cccc1)c1noc(-c2ccccc2)n1` [Compound 22]: the EC50 with YAP (Table 3) is > 20 µM. Further, the IC50 in data set [1] was > 20 µM.
As to `O=C(NCCCc1nccs1)c1noc2ccccc12` [Compound 34], in the data set on YAP (Table 3), the EC50 was > 20 µM. Further, the IC50 in data set [1] is > 20 µM.
For `COc1ccccc1-c1cc(C(=O)N2CCCC2c2cc(C)no2)no1` (stereo not shown) [Compound 109], the EC50 with YAP (Table 4) is > 20 µM. In addition, in data set [1], the IC50 is > 20 µM.
In the case of `CC(C)(C)SCCNC(=O)c1cc(-c2ccccc2)on1` [Compound 51], the EC50 in the data set on YAP (Table 3) was > 20 µM. In addition, the IC50 in data set [1] was > 20 µM.
As to `O=C(NC1CCCc2ccccc21)c1cc(-c2ccccc2)n[nH]1` (stereo not shown) [Compound 151], the EC50 with YAP (Table 4) was 10 µM. Besides, the IC50 in data set [1] was > 20 µM.
As for `CCc1cccc(NC(=O)C2CCN(C(=O)c3cc(-c4ccncc4)[nH]n3)CC2)c1` [Compound 155], in the data set on YAP (Table 4), the EC50 came out at 5 µM. The concentration for half-maximal inhibition (IC50) in data set [1] was > 20 µM.
As for `O=C(NC12CC(C(F)(F)F)(C1)C2)c1cc(-c2ccccc2)on1` [Compound 56], the EC50 with YAP (Table 3) is > 20 µM. In addition, the IC50 in data set [1] was > 20 µM.
For the compound `O=C(NCCCc1nccs1)c1ncc(-c2ccccc2)o1` [Compound 102], the EC50 in the data set with YAP (Table 3) is > 20 µM. The IC50 in data set [1] was > 20 µM.
In the case of `COC(=O)N1CCN(CCCNC(=O)c2cc(-c3ccccc3)on2)CC1` [Compound 41], the EC50 with YAP (Table 3) amounted to 3.38 µM. For the same compound, the IC50 in data set [1] is > 20 µM.
The like results for `CSCCNC(=O)c1cc(-c2ccccc2)on1` [Compound 61] were, in that order, 2.36 µM and > 20 µM.
`Cc1ccc(-c2cc(C(=O)NCCC(=O)N(C)Cc3ccccc3)no2)cc1` [Compound 119]: the EC50 in the data set on YAP (Table 4) is > 20 µM. In addition, the IC50 in data set [1] was > 20 µM.
On to `COc1ccc2cc(NC(=O)c3n[nH]c4c3CCCCC4)cnc2c1` [Compound 157], for which, in the data set with YAP (Table 4), the EC50 stood at 10 µM. Moreover, the IC50 in data set [1] was > 20 µM.
On the same counts, the results for `O=C(c1cc(-c2ccccc2)on1)N1CCCN(c2cccnn2)CC1` [Compound 140] are > 20 µM and > 20 µM.
In the case of `O=C(NCCCc1nccs1)c1cncc(C(F)(F)F)c1` [Compound 92], the EC50 in the data set on YAP (Table 3) is > 20 µM. Moreover, in data set [1], the IC50 is > 20 µM.
Take `Cc1ccc(NCCCNC(=O)c2cc(-c3ccccc3)on2)nc1` [Compound 131]: the EC50 in the data set with YAP (Table 4) was found to be 2.88 µM. The IC50 in data set [1] is > 20 µM.
`O=C(NCC(F)(F)F)c1cc(-c2ccccc2)on1` [Compound 63]: the EC50 with YAP (Table 3) turned out to be 7.58 µM. For the same compound, in data set [1], the IC50 was > 20 µM.
The like results for `NS(=O)(=O)c1ccc(-c2cc(C(=O)NCCCc3nccs3)no2)cc1` [Compound 42] were, in that order, > 20 µM and > 20 µM.
Turning to `CN1CCN(CCNC(=O)c2cc(-c3ccccc3)on2)CC1` [Compound 128], in the data set on YAP (Table 4), the EC50 was 6.04 µM. Further, the IC50 in data set [1] is > 20 µM.
Regarding `CC(C)(CNC(=O)c1cc(-c2ccccc2)on1)C(F)(F)F` [Compound 43], the EC50 with YAP (Table 3) was > 20 µM. The half-inhibitory concentration (IC50) in data set [1] was > 20 µM.
On to `CN1C(=O)CCc2cc(NC(=O)c3n[nH]c4ccccc34)ccc21` [Compound 147], for which the EC50 with YAP (Table 4) was 2.5 µM. Further, the IC50 in data set [1] is > 20 µM.
`Cc1c(C(=O)NCCCn2cccc2)noc1-c1ccccc1` [Compound 18]: the EC50 with YAP (Table 3) is > 20 µM. Further, the IC50 in data set [1] is > 20 µM.
For the compound `C[C@H](NC(=O)c1cc(-c2ccccc2)on1)c1ccc(Cl)cc1` [Compound 67], in the data set on YAP (Table 3), the concentration for a half-maximal effect (EC50) is > 20 µM. Besides, the IC50 in data set [1] was > 20 µM.
For the compound `O=C(NC12CC(F)(C1)C2)c1cc(-c2ccccc2)on1` [Compound 57], in the data set with YAP (Table 3), the EC50 is > 20 µM. Also, the IC50 in data set [1] is > 20 µM.
On to `O=C(NCCCn1ccnc1)c1cc(-c2ccccc2)on1` [Compound 114], for which, in the data set with YAP (Table 4), the EC50 stood at 2.97 µM. Also, the IC50 in data set [1] was > 20 µM.
Turning to `O=C(NCCCc1ncno1)c1cc(-c2ccccc2)on1` [Compound 28], in the data set with YAP (Table 3), the EC50 worked out at 1.67 µM. Moreover, the IC50 in data set [1] was > 20 µM.
On to `O=C(NCCCc1nccs1)c1cc(-c2ccc(-c3ccccc3)cc2)on1` [Compound 40], for which, in the data set on YAP (Table 3), the EC50 was > 20 µM. In data set [1], the half-inhibitory concentration (IC50) was > 20 µM.
On to `O=C(NCCCN1CCOCC1)c1cc(-c2ccccc2)on1` [Compound 112], for which the EC50 in the data set with YAP (Table 4) was determined as 6.71 µM. Moreover, the IC50 in data set [1] was > 20 µM.
On to `O=C(NCc1cccs1)c1cc(-c2ccccc2)on1` [Compound 54], for which, in the data set with YAP (Table 3), the EC50 was > 20 µM. The concentration for half-maximal inhibition (IC50) in data set [1] was > 20 µM.
Turning to `CCN1C(=O)NC(=O)C12CCN(C(=O)c1cc(-c3ccccc3)on1)CC2` [Compound 125], the EC50 with YAP (Table 4) is > 20 µM. For the same compound, the IC50 in data set [1] was > 20 µM.
As to `O=C(NCCCn1ccnn1)c1cc(-c2ccc(F)cc2F)on1` [Compound 75], the EC50 in the data set on YAP (Table 3) is 10 µM. Moreover, the IC50 in data set [1] is > 20 µM.
The like results for `O=C(NCCCn1ccnn1)c1cc(-c2ccc(F)c(F)c2)on1` [Compound 79] were, in that order, > 20 µM and > 20 µM.
Take `O=C(NCCCn1cccn1)c1cc(-c2ccccc2)on1` [Compound 111]: the EC50 in the data set with YAP (Table 4) was 1.6 µM. In data set [1], the IC50 is > 20 µM.
Regarding `Cc1nc(CCCNC(=O)c2cc(-c3ccccc3)on2)sc1C` [Compound 142], the EC50 with YAP (Table 4) was 4.71 µM. The IC50 in data set [1] is > 20 µM.
The like results for `CC(C)(CO)NC(=O)c1cc(-c2ccccc2)on1` [Compound 107] were, in that order, > 20 µM and > 20 µM.
For `O=C(NCCCn1cccc1)c1cc(-c2ccncc2)on1` [Compound 29], the EC50 in the data set with YAP (Table 3) was > 20 µM. In addition, the IC50 in data set [1] is > 20 µM.
Regarding `O=C(NCCCn1nccn1)c1cc(-c2ccccc2)on1` [Compound 7], in the data set with YAP (Table 3), the EC50 was found to be 1.13 µM. Further, in data set [1], the IC50 is > 20 µM.
The like results for `O=C(NCCCn1cccc1)c1n[nH]c2ccccc12` [Compound 101] were, in that order, > 20 µM and > 20 µM.
On the same counts, the results for `O=C(NCCCc1nccs1)c1noc(-c2ccccc2)c1-c1ccccc1` [Compound 33] are > 20 µM and > 24 µM.
The like results for `NC(=O)c1ccc(-c2cc(C(=O)NCCCc3nccs3)no2)cc1` [Compound 32] were, in that order, > 20 µM and > 20 µM.
Turning to `O=C(NCCCn1ccnn1)c1n[nH]c2ccccc12` [Compound 97], the concentration for a half-maximal effect (EC50) in the data set with YAP (Table 3) was > 20 µM. The IC50 in data set [1] was > 20 µM.
Turning to `O=C(NCCCc1ncco1)c1cc(-c2ccccc2)on1` [Compound 27], the EC50 in the data set with YAP (Table 3) worked out at 3.8 µM. For the same compound, the IC50 in data set [1] is > 20 µM.
On the same counts, the results for `O=C(NCCCN1CCCC1)c1cc(-c2ccccc2)on1` [Compound 5] are > 20 µM and > 20 µM.
`O=C(NCCCn1ccc2ccccc21)c1cc(-c2ccccc2)on1` [Compound 4]: the half-maximal effective concentration (EC50) in the data set on YAP (Table 3) was found to be 1.41 µM. Besides, in data set [1], the IC50 is > 20 µM.
The like results for `O=C(NCCn1cccc1)c1n[nH]c2ccccc12` [Compound 93] were, in that order, > 20 µM and > 20 µM.
The like results for `O=C(NCCCn1ccc(-c2ccccc2)c1)c1cc(-c2ccccc2)on1` [Compound 26] were, in that order, > 20 µM and > 20 µM.
